Measurements from paper PMC7819857, “Identification of Inhibitors of Integrin Cytoplasmic Domain Interactions With Syk” (Frontiers in Immunology, 2021).

Tests used:
[1] = system: MCP-1 gene expression in THP-1 cells; assay: Quantitative PCR of adhesion-dependent MCP-1 expression in THP-1 cells; format: cell-based, human; conditions: 100 µM loaded cells, plated on CS-1, 4 h, qPCR
Experimental: THP-1 cells (2 × 10^6 per treatment group) that were glycerol loaded with ceftazidime (100 µM) or vehicle control (as described above) were plated on CS-1 peptide (10 µg/ml; 6-well plates) in serum-free RPMI-1640. Control cells were also kept in suspension. Plated and suspension cells were incubated for 4 h at 37°C. After incubation, the medium was removed, and RNA was isolated from cells with a Qiagen RNA extraction kit. After cDNA synthesis, quantitative real-time PCR was used to determine the relative gene expression levels of IL-1β and monocyte chemoattractant protein (MCP)-1 in THP-1 cells adhered to CS-1 in the presence of vehicle or ceftazidime relative to that of cells in suspension. The cycle threshold (Ct) results generated were analyzed according to the comparative Ct method (2^-ΔΔCt), where ΔCt is the difference between the CT value of target versus GAPDH control, and ΔΔCt is the difference between the ΔCt values of a given treated adherent cell sample and that of cells in suspension. Statistical differences between the two treatment groups for each target were determined by a two-tailed, unpaired Student t test using GraphPad Prism 7.04 statistical software.
Figure 6 Selective inhibition of integrin signaling by ceftazidime. […] Data are expressed as mean ± range from duplicate determinations. […] Kinase activity is expressed as percent of maximum signal. […]

[2] = target: T1, wild-type full-length Syk : integrin β3 cytoplasmic domain (Homo sapiens, UniProt P43405); assay: Peptide affinity pull-down of Syk from THP-1 whole cell lysate on β3 peptide beads; format: binding; conditions: bβ3(fl) on neutravidin agarose beads, western blot
T1 construct: endogenous in cells; host or cells: THP-1 whole cell lysate
Experimental: THP-1 cells were washed in PIPES buffer (10 mM PIPES, 50 mM NaCl pH 6.8) and resuspended at 10 × 10^6 cells/ml in PIPES lysis buffer [PIPES buffer containing 1% Triton X-100, 1 mM EDTA, 1 mM Na3VO4, 50 mM NaF, 150 mM sucrose, protease inhibitors (cOmplete, Mini, EDTA-free Protease Inhibitor Cocktail, Roche, cat#11836170001)] and 0.1 mM N-ethylmaleimide. The cells were incubated overnight in lysis buffer at 4°C with end-over-end rotation. Lysates were then passed through a 21-gauge needle and centrifuged at 13,000 × g for 30 min at 4°C. Lysate protein concentrations were determined by using Quick Start Bradford Dye reagent (BioRad cat#5000202). […] Eluted samples were run on SDS-PAGE (4–20%, BioRad, cat# 4561093) and immunoblotted for Syk using anti-Syk antibody at 1:1,000 (4D10; SantaCruz) dilution followed by GAM-HRP at 1:5,000 and detected with SuperSignal West Pico (Thermo Scientific, cat# 34580). Western blots were scanned, and band intensity was measured using ImageJ ([31]) to compare and determine the effect of the drug on Syk/β3 binding. […]
Figure 3 Dose-response curves in primary and orthogonal screens. […] Data are expressed as mean fluorescence (Fl520) ± range from duplicates, and one representative experiment of “n” performed is shown. […] Data are expressed as mean abs450 ± SEM from triplicate determinations, and one of three representative experiments is shown. […]

CC(C)(O/N=C(\C(=O)N[C@@H]1C(=O)N2C(C(=O)[O-])=C(C[n+]3ccccc3)CS[C@H]12)c1csc(N)n1)C(=O)O [ceftazidime]
adhesion-dependent induction of the expression of MCP-1 [1]: significantly inhibited | inhibition of wild-type Syk interaction with integrin β3 cytoplasmic domains [2]: inhibited
